Reference: ChEMBL document CHEMBL1201862, “PubChem BioAssay data set” (2004)
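How tested: cells in 96-well plates exposed to compound for 48 hours at five concentrations. GI50 marks 50% less growth.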 Calls of active or inactive are those of the source. Cut-off read from the data, not from the text of the source: active = GI50 up to about 1.1 µM and inactive = higher.

Experiments:
Assay in all cases: growth of human tumour cells (NCI), 48 h
CCRF-CEM = system: CCRF-CEM
HOP-92 = system: HOP-92
XF498 = system: XF498
SNB-19 = system: SNB-19
SF-268 = system: SF-268
MOLT-4 = system: MOLT-4
SK-MEL-28 = system: SK-MEL-28
OVCAR-8 = system: OVCAR-8
DMS-114 = system: DMS-114
HT-29 = system: HT-29
Malme-3M = system: Malme-3M
RPMI-8226 = system: RPMI-8226
IGROV-1 = system: IGROV-1
HCT-116 = system: HCT-116
CAKI-1 = system: CAKI-1
HOP-62 = system: HOP-62
M19-MEL = system: M19-MEL
ACHN = system: ACHN
DMS-273 = system: DMS-273
KM-20L2 = system: KM-20L2
A498 = system: A498
SK-MEL-5 = system: SK-MEL-5
SNB-75 = system: SNB-75
HCT-15 = system: HCT-15
HOP-18 = system: HOP-18
SNB-78 = system: SNB-78
HCC 2998 = system: HCC 2998
EKVX = system: EKVX
U-251 = system: U-251
SN12C = system: SN12C
SF-539 = system: SF-539
K562 = system: K562
SW-620 = system: SW-620
COLO 205 = system: COLO 205
UACC-62 = system: UACC-62
786-0 = system: 786-0
A549 = system: A549
OVCAR-3 = system: OVCAR-3
LOX IMVI = system: LOX IMVI
SK-MEL-2 = system: SK-MEL-2
SR = system: SR
OVCAR-4 = system: OVCAR-4
NCI-H522 = system: NCI-H522
SF-295 = system: SF-295
HL-60 = system: HL-60
NCI-H226 = system: NCI-H226
KM12 = system: KM12
SK-OV-3 = system: SK-OV-3
DLD-1 = system: DLD-1
TK-10 = system: TK-10
OVCAR-5 = system: OVCAR-5
UO-31 = system: UO-31
M14 = system: M14
NCI-H23 = system: NCI-H23
RXF 393 = system: RXF 393
UACC-257 = system: UACC-257
NCI-H460 = system: NCI-H460
LXFL 529 = system: LXFL 529

Measured: GI50

O=C(Nc1ccccc1)c1cccc([N+](=O)[O-])c1
inactive: CCRF-CEM > 100 µM | HOP-92 > 100 µM | XF498 > 100 µM | SNB-19 > 100 µM | SF-268 > 100 µM | MOLT-4 60.8 µM | SK-MEL-28 > 100 µM | OVCAR-8 > 100 µM | DMS-114 92.9 µM | HT-29 > 100 µM | Malme-3M > 100 µM | RPMI-8226 39.9 µM | IGROV-1 > 100 µM | HCT-116 > 100 µM | CAKI-1 > 100 µM | HOP-62 > 100 µM | M19-MEL > 100 µM | ACHN > 100 µM | DMS-273 > 100 µM | KM-20L2 37.5 µM | A498 > 100 µM | SK-MEL-5 > 100 µM | SNB-75 > 100 µM | HOP-18 > 100 µM | SNB-78 > 100 µM | HCC 2998 > 100 µM | EKVX > 100 µM | U-251 > 100 µM | SN12C > 100 µM | SF-539 > 100 µM | K562 > 100 µM | SW-620 > 100 µM | COLO 205 > 100 µM | UACC-62 > 100 µM | 786-0 > 100 µM | A549 > 100 µM | OVCAR-3 > 100 µM
> 100 µM: HCT-15

Cc1c2ccccc2c(=O)n2c(-c3ccccn3)cccc12
> 100 µM: HCT-15
inactive: CCRF-CEM > 100 µM | HOP-92 > 100 µM | LOX IMVI > 100 µM | SK-MEL-2 > 100 µM | SR 54 µM | XF498 > 100 µM | SNB-19 > 100 µM | SF-268 > 100 µM | MOLT-4 79.8 µM | OVCAR-4 > 100 µM | SK-MEL-28 > 100 µM | OVCAR-8 > 100 µM | DMS-114 > 100 µM | NCI-H522 > 100 µM | HT-29 > 100 µM | Malme-3M > 100 µM | RPMI-8226 > 100 µM | IGROV-1 > 100 µM | HCT-116 > 100 µM | CAKI-1 > 100 µM | SF-295 > 100 µM | HL-60 > 100 µM | HOP-62 > 100 µM | NCI-H226 > 100 µM | KM12 > 100 µM | SK-OV-3 > 100 µM | DLD-1 > 100 µM | M19-MEL 78 µM | ACHN > 100 µM | DMS-273 > 100 µM | KM-20L2 > 100 µM | A498 29.8 µM | SK-MEL-5 > 100 µM | TK-10 > 100 µM | OVCAR-5 > 10 µM | SNB-75 > 100 µM | UO-31 > 100 µM | HOP-18 > 100 µM | SNB-78 > 100 µM | M14 78.7 µM | HCC 2998 > 100 µM | EKVX > 100 µM | U-251 > 100 µM | SN12C > 100 µM | SF-539 > 100 µM | NCI-H23 > 100 µM | K562 > 100 µM | SW-620 > 100 µM | COLO 205 > 100 µM | UACC-62 > 100 µM | RXF 393 > 100 µM | UACC-257 94.8 µM | 786-0 > 100 µM | A549 > 100 µM | OVCAR-3 97.1 µM | NCI-H460 > 100 µM

CCOC(=O)/C(C(=O)c1ccccc1)=C1/NCCN1C
> 100 µM: HCT-15
inactive: CCRF-CEM > 100 µM | LOX IMVI > 100 µM | SK-MEL-2 > 100 µM | SR > 100 µM | XF498 > 100 µM | SNB-19 > 100 µM | SF-268 > 100 µM | MOLT-4 > 100 µM | OVCAR-4 > 100 µM | SK-MEL-28 > 100 µM | OVCAR-8 > 100 µM | NCI-H522 > 100 µM | HT-29 > 100 µM | Malme-3M > 100 µM | RPMI-8226 > 100 µM | IGROV-1 > 100 µM | HCT-116 > 100 µM | CAKI-1 > 100 µM | LXFL 529 > 100 µM | SF-295 > 100 µM | HL-60 > 100 µM | HOP-62 > 100 µM | NCI-H226 > 100 µM | KM12 > 100 µM | DLD-1 > 100 µM | M19-MEL > 100 µM | ACHN > 100 µM | KM-20L2 > 100 µM | SK-MEL-5 > 100 µM | OVCAR-5 > 100 µM | UO-31 > 100 µM | HOP-18 > 100 µM | SNB-78 > 100 µM | M14 > 100 µM | HCC 2998 > 100 µM | EKVX > 100 µM | U-251 > 100 µM | SN12C > 100 µM | SF-539 10 µM | NCI-H23 > 100 µM | K562 > 100 µM | SW-620 > 100 µM | COLO 205 > 100 µM | UACC-62 > 100 µM | RXF 393 > 100 µM | UACC-257 > 100 µM | 786-0 > 100 µM | A549 > 100 µM | OVCAR-3 > 100 µM | NCI-H460 > 100 µM

Cc1nc2nn(C)cc2c(=O)n1/N=C/c1ccccc1
> 100 µM: HCT-15
inactive: CCRF-CEM > 100 µM | LOX IMVI > 100 µM | SK-MEL-2 > 100 µM | SR > 100 µM | XF498 > 100 µM | SNB-19 > 100 µM | SF-268 > 100 µM | MOLT-4 > 100 µM | OVCAR-4 > 100 µM | SK-MEL-28 > 100 µM | OVCAR-8 > 100 µM | DMS-114 > 100 µM | NCI-H522 > 100 µM | HT-29 > 100 µM | Malme-3M > 100 µM | RPMI-8226 > 100 µM | IGROV-1 > 100 µM | HCT-116 > 100 µM | SF-295 > 100 µM | HL-60 > 100 µM | HOP-62 > 100 µM | NCI-H226 > 100 µM | KM12 > 100 µM | SK-OV-3 > 100 µM | DLD-1 > 100 µM | M19-MEL > 100 µM | ACHN > 100 µM | DMS-273 > 100 µM | KM-20L2 > 100 µM | A498 > 100 µM | SK-MEL-5 > 100 µM | TK-10 > 100 µM | OVCAR-5 > 100 µM | SNB-75 > 100 µM | UO-31 > 100 µM | HOP-18 73.1 µM | SNB-78 > 100 µM | HCC 2998 > 100 µM | EKVX > 100 µM | U-251 > 100 µM | SN12C > 100 µM | SF-539 > 100 µM | NCI-H23 > 100 µM | K562 > 100 µM | SW-620 > 100 µM | COLO 205 > 100 µM | UACC-62 > 100 µM | RXF 393 > 100 µM | UACC-257 > 100 µM | 786-0 > 100 µM | A549 > 100 µM | OVCAR-3 > 100 µM | NCI-H460 > 100 µM
